Values joined by “and” are separate entries in the source; they are usually repeats but may differ in a detail not shown here. Equal values may be shown once.
Key:
[1] = test system: VC reductive dehalogenase of Dehalococcoides sp. strain VS; assay: VC-reduction enzyme assay with Ti(III)-reduced methyl viologen as electron donor, gas chromatography; assay type: biochemical
Procedure: Enzyme assays. Cells were harvested by centrifugation (20,000 g, 20 min, 4° C.) under strictly anoxic conditions using the anoxic chamber, washed and resuspended in degassed MOPS buffer (20 mM, pH 7.2) supplemented with 2 mM DTE and 0.2 mM titanium(III)NTA (buffer A). The buffer was incubated overnight in the anoxic chamber before addition of reducing agents. Cell-free extracts were obtained by anoxic disruption of cells by French Press treatment (138 MPa; two passages), followed by two centrifugation steps (30,000×g, 15 min, 4° C.).
Assays of VC-reduction were conducted as described previously in 2-ml glass vials under an N2/H2 atmosphere with Ti(III)-reduced methyl viologen as artificial electron donor (Rosner et al.) The protein concentration in the assay varied between 10 and 100 μg/ml. The test was started by addition of gaseous VC to the assay mix (total aqueous volume 0.3 ml), and change in VC and ethene concentrations were followed with time by gas chromatography. Experiments testing for reduction of liquid chlorinated ethenes (PCE, TCE, DCE-isomers) were carried out essentially as described above with the appropriate substitution of the chlorinated ethene. The chlorinated compounds were added from aqueous stock solutions.
Oxygen sensitivity of VC-reducing activity in cell-free extract was investigated in buffer amended with resazurin as redox indicator. Prior to addition of VC, the assay was exposed to air until the resazurin underwent a color-change from colorless to pink. Subsequently, the assay was rendered anoxic again by exchanging the gas phase inside the anoxic chamber followed by addition of Ti(III)NTA (5 mM final concentration). All enzyme assays were carried out at ambient temperature, and given activities are means of at least three independent measurements.
Partial purification of VC reductase. Protein purification was performed at 4° C. in the anoxic chamber. The membrane fraction was obtained by centrifugation of cell-free extract at 100,000×g for 90 min at 4° C. The pellet was resuspended in 1 ml buffer A supplemented with 2 mM 3-[(3-cholamidopropyl)dimethylammonio]-1-propanesulfonic acid (CHAPS), and incubated for 1 h on ice. After subsequent centrifugation (100,000×g, 90 min, 4° C.) the solubilized membrane fraction was diluted with an equal volume of buffer B (50 mM 1,3-Bis[tris(hydroxymethyl)methylamino]propane (Bis-Tris Propane), pH 9.6, 2 mM dithiothreitol, 0.2 mM titanium(III)NTA, 20 mM CHAPS), and loaded on a 1-ml HighTrap Q column (Amersham Pharmacia) equilibrated with buffer C (same as buffer B but with 2 mM CHAPS). VC reductive dehalogenase activity was eluted as a single peak (at 550 to 580 mM NaCl) with 10 ml buffer C followed by a 40-ml linear gradient from 0-700 mM NaCl in buffer C at a flow of 1 ml/min. Fractions containing the highest activity were pooled and mixed with an equal volume of buffer A containing 20 mM CHAPS, and applied to a Superose-6 column equilibrated with the same buffer. Enzyme activity was eluted with buffer A at a flow rate of 0.2 ml/min. The protein concentration of the samples was determined according to Bradford with bovine serum albumin as a standard.

Pinellas culture = assay: Batch dechlorination and growth kinetics, Pinellas culture; assay type: cell-based, Dehalococcoides-like microorganisms
Description: (§1) Stock cultures. The Victoria mixed culture, containing strain VS, was maintained in a closed continuously stirred tank reactor (CSTR) as previously described. A VC enrichment of this culture, maintained over 5 years, was also used in these investigations. Liquid cultures of the three other cultures evaluated (Pinellas, KB-1/VC, and Dehalococcoides ethenogenes strain 195) were kept in anaerobic bottles, stored in an anaerobic chamber (10% H2, 10% CO2, 80% N2). The bottles were amended with TCE (1-3 μL neat liquid), VC (250 μL gas), and PCE (1-3 μL neat liquid) being added to each, respectively, approximately every two weeks.
(§2) Batch studies. For the experimental portion of this research, two studies were undertaken, one a comparative VC growth study, and the other a comparative growth and substrate utilization study with different chlorinated ethenes. These studies compared the dechlorination abilities of Dehalococcoides ethenogenes strain 195 and the Dehalococcoides-like microorganisms in the three mixed cultures (Victoria, KB-1/VC, and Pinellas).
(§3) For the first study, a VC enriched inoculum was first developed for each of the three mixed cultures. Here, bottles (120 mL) were filled with 60 mL of anaerobic media in an anaerobic chamber as previously described, and inoculated with 200 μL of each stock culture. Gaseous VC (99.5%) was added with a gas tight syringe (200 μL). The cultures were then moved to a shaker (60-80 rpm) in an anaerobic chamber (20±2° C.). Immediately after 5 μmol of ethene was formed in a bottle, 200 μL of the culture was transferred to fresh media (60 mL), in triplicate, and VC was again added (200 μL). The inoculum for the growth study was that formed after exactly 4 μmol of ethene was produced following this second transfer. To compare growth rates on VC, a range in concentration of each inocula (0.1, 0.3, 1, 3, 9 mL) was transferred to fresh media (as above) to result in a liquid volume of 60 mL, and gaseous VC (200 μL) was added to each. […] Hydrogen served as the electron donor and was non-limiting (>3%) in all studies. Headspace samples were periodically removed by syringe (250 μL) for chlorinated ethene analyses.
(§4) The purpose of the second study was to compare dechlorination rates of PCE, TCE and DCE between the three different cultures that grew on VC (Victoria, KB-1/VC and Pinellas). The development of inocula here was performed with VC, just as in the first study. For the growth and substrate utilization experiments, triplicate bottles were set up for each culture containing 1 mL of inoculum and either neat PCE (0.4 μL), neat TCE (0.3 μL), saturated DCE solution (34 μL) or gaseous VC (200 μL). To further investigate TCE removal, bottles (120 mL) were filled with 20 mL of a highly enriched culture of strain VS made from the Victoria culture. Duplicate bottles were supplied with gaseous VC (50 μL on day 0, then 150 μL on day 3) or TCE (0.4 μL neat liquid). Dechlorination was followed until all VC or TCE was converted to ethene (day 12). The change in strain VS concentration during VC and TCE utilization was then determined both by competitive PCR and by an activity procedure evaluated previously for strain VS. In the activity procedure a non-growth limiting concentration of VC (150 μL) along with excess hydrogen is added to a culture and the initial dechlorination rate is measured (over <1 day). A good estimate of strain VS concentration can then be obtained using the previously determined strain VS maximum VC utilization rate (7.8×10^−10 μmol Cl^− (cell·d)^−1). The increase in strain VS concentration during TCE or VC utilization was determined with these two procedures on the culture before and after TCE and VC utilization.
(§5) Comparative dechlorination and growth kinetics. With mixed cultures, the concentration of organisms carrying out a particular reaction is generally unknown and difficult to determine. […]

[2] = test system: Victoria mixed culture, containing strain VS; assay: Batch dechlorination and growth kinetics, Victoria mixed culture; assay type: cell-based, Dehalococcoides species strain VS
Description: as §1, §2, §3, §4, §5

KB-1/VC culture = assay: Batch dechlorination and growth kinetics, KB-1/VC culture; assay type: cell-based, Dehalococcoides-like microorganisms
Description: as §1, §2, §3, §4, §5

[3] = test system: Dehalococcoides ethenogenes strain 195; assay: Batch dechlorination, D. ethenogenes strain 195 culture; assay type: cell-based; conditions: cultures supplied with VC or DCE
Description: as §1, §2
For the first study, a VC enriched inoculum was first developed for each of the three mixed cultures. Here, bottles (120 mL) were filled with 60 mL of anaerobic media in an anaerobic chamber as previously described, and inoculated with 200 μL of each stock culture. Gaseous VC (99.5%) was added with a gas tight syringe (200 μL). […]

ClC(Cl)=C(Cl)Cl [PCE, tetrachloroethene]
transformation during the course of the enzyme assay ([1]; 2 h): not transformed
effect on the reduction rate of VC ([1]; saturating concentrations of PCE or TCE present): not affected
PCE dechlorination (Pinellas culture): failed to dechlorinate
lag period before PCE dechlorination ([2]; Victoria mixed culture): 6 to 12 days
PCE dechlorination (KB-1/VC culture): failed to dechlorinate

Cl/C=C\Cl [DCE, cis-1,2-dichloroethene]
dechlorination by D. ethenogenes strain 195 [3]: did dechlorinate DCE to VC
Maximum Growth Rate (Pinellas culture; 95% confidence interval): 0.43 day⁻¹ and 0.43 ± 0.00 day⁻¹
Maximum Growth Rate ([2]; VS Mixed (Victoria) culture, 95% confidence interval, least-squares model fit): 0.46 ± 0.04 day⁻¹
Maximum Growth Rate (KB-1/VC culture; 95% confidence interval): 0.44 ± 0.02 day⁻¹

B1: VC reductive dehalogenase: VC reductive dehalogenase partially purified from Dehalococcoides sp. strain VS; corrinoid/iron-sulfur cluster reductive dehalogenase (protein)
chain: MSKFHKTISRRDFMKGLGLAGAGIGAVAASAPVFHDIDELVSSEANSTKDQPWYVKHREHFDPTITVDWDIFDRYDGYQHKGVYEGPPDAPFTSWGNRLQVRMSGEEQKKRILAAKKERFPGWDGGLHGRGDQRADALFYAVTQPFPGSGEEGHGLFQPYPDQPGKFYARWGLYGPPHDSAPPDGSVPKWEGTPEDNFLMLRAAAKYFGAGGVGALNLADPKCKKLIYKKAQPMTLGKGTYSEIGGPGMIDAKIYPKVPDHAVPINFKEADYSYYNDAEWVIPTKCESIFTFTLPQPQELNKRTGGIAGAGSYTVYKDFARVGTLVQMFIKYLGYHALYWPIGWGPGGCFTTFDGQGEQGRTGAAIHWKFGSSQRGSERVITDLPIAPTPPIDAGMFEFCKTCYICRDVCVSGGVHQEDEPTWDSGNWWNVQGYLGYRTDWSGCHNQCGMCQSSCPFTYLGLENASLVHKIVKGVVANTTVFNSFFTNMEKALGYGDLTMENSNWWKEEGPIYGFDPGT
modifications: partially purified native enzyme; Dehalococcoides sp. VS
Sp act (VC reduction) ([1]; step: Anionic exchange chromotagraphy): 638 mU/mg protein
Sp act (VC reduction) ([1]; step: Cell-free extract, 1 mU = 1 nmol VC per minute): 220 mU/mg protein
Sp act (VC reduction) ([1]; step: Gelfiltration): 990 mU/mg protein
Sp act (VC reduction) ([1]; step: Membrane fraction): 346 mU/mg protein
Sp act (VC reduction) ([1]; step: Solubilized membrane fraction): 308 mU/mg protein

Reference: patent US8647824B2, “Microbial reductive dehalogenation of vinyl chloride” (The Board of Trustees of the Leland Stanford Junior …, priority 2004, dated 2014)
